Laboratory results taken from ChEMBL document CHEMBL3885861, “Open TG-GATES”.

Species: Rattus norvegicus
Test: Open TG-GATES - Regimen: Single
Type: toxicity, organism-based, Sprague-Dawley
Parameters: regimen Single, gender Male, age 6 weeks
Conditions: in vivo, po, route gavage; for APTT / Bas / Eos / Fbg / Hb / Ht / Lym / MCH / MCHC / MCV / Mono / Neu / PT / Plat / RBC / Ret / WBC: tissue Blood; for KIDNEY_L / KIDNEY_R / KIDNEY_TOTAL: tissue Kidney; for LIVER: tissue Liver; for A/G / ALP / ALT / AST / BUN / CRE / Ca / Cl / DBIL / GLC / IP / K / LDH / Na / PL / RALB / TBIL / TC / TG / TP / gamma-GTP: tissue Plasma
[1] = 100 mg/kg, 3 h, dose level Middle
[2] = 100 mg/kg, 6 h, dose level Middle
[3] = 100 mg/kg, 9 h, dose level Middle
[4] = 100 mg/kg, 24 h, dose level Middle
[5] = 300 mg/kg, 3 h, dose level High
[6] = 300 mg/kg, 6 h, dose level High
[7] = 300 mg/kg, 9 h, dose level High
[8] = 300 mg/kg, 24 h, dose level High

Cc1ccc(C)c(OCCCC(C)(C)C(=O)O)c1 [GEMFIBROZIL]
TERMINAL_BW [1]: 221.2 g
APTT [1]: 15.4 s
Bas [1]: 0%
Eos [1]: 0.8%
Fbg [1]: 283.2 mg/dL
Hb [1]: 13.4 g/dL
Ht [1]: 39.6%
Lym [1]: 78.2%
MCH [1]: 21.5 pg
MCHC [1]: 33.8%
MCV [1]: 63.4 fL
Mono [1]: 3.2%
Neu [1]: 17.4%
PT [1]: 12.4 s
Plat [1]: 116.9 x10_4/uL
RBC [1]: 624.4 x10_4/ul
Ret [1]: 7.2%
WBC [1]: 76.9 x10_2/uL
KIDNEY_L [1]: 1 g
KIDNEY_R [1]: 1 g
KIDNEY_TOTAL [1]: 1.9 g
LIVER [1]: 9.4 g
A/G [1]: 0.8
ALP [1]: 1811 IU/L
ALT [1]: 47.8 IU/L
AST [1]: 80.8 IU/L
BUN [1]: 11.8 mg/dL
CRE [1]: 0.2 mg/dL
Ca [1]: 11.4 mg/dL
Cl [1]: 104.8 meq/L
DBIL [1]: 0.068 mg/dL
GLC [1]: 177 mg/dL
IP [1]: 10.2 mg/dL
K [1]: 4.3 meq/L
LDH [1]: 68.8 IU/L
Na [1]: 140.6 meq/L
PL [1]: 174.2 mg/dL
RALB [1]: 2.5 g/dL
TBIL [1]: 0.072 mg/dL
TC [1]: 88 mg/dL
TG [1]: 155.6 mg/dL
TP [1]: 5.5 g/dL
gamma-GTP [1]: 1.2 IU/L
TERMINAL_BW [2]: 224.5 g
APTT [2]: 14.9 s
Bas [2]: 0%
Eos [2]: 0.8%
Fbg [2]: 297 mg/dL
Hb [2]: 13.9 g/dL
Ht [2]: 40.4%
Lym [2]: 76.2%
MCH [2]: 21.1 pg
MCHC [2]: 34.4%
MCV [2]: 61.2 fL
Mono [2]: 2.8%
Neu [2]: 19.4%
PT [2]: 12 s
Plat [2]: 124.5 x10_4/uL
RBC [2]: 659.6 x10_4/ul
Ret [2]: 7.6%
WBC [2]: 87.8 x10_2/uL
KIDNEY_L [2]: 0.9 g
KIDNEY_R [2]: 0.9 g
KIDNEY_TOTAL [2]: 1.9 g
LIVER [2]: 8.7 g
A/G [2]: 0.9
ALP [2]: 1550.4 IU/L
ALT [2]: 42.4 IU/L
AST [2]: 69.6 IU/L
BUN [2]: 9.8 mg/dL
CRE [2]: 0.2 mg/dL
Ca [2]: 11.3 mg/dL
Cl [2]: 107.2 meq/L
DBIL [2]: 0.072 mg/dL
GLC [2]: 181.2 mg/dL
IP [2]: 10.7 mg/dL
K [2]: 4.2 meq/L
LDH [2]: 61.2 IU/L
Na [2]: 142 meq/L
PL [2]: 158.2 mg/dL
RALB [2]: 2.7 g/dL
TBIL [2]: 0.056 mg/dL
TC [2]: 83.4 mg/dL
TG [2]: 89.2 mg/dL
TP [2]: 5.5 g/dL
gamma-GTP [2]: 1 IU/L
TERMINAL_BW [3]: 221.6 g
APTT [3]: 16 s
Bas [3]: 0%
Eos [3]: 0.8%
Fbg [3]: 274.2 mg/dL
Hb [3]: 13.8 g/dL
Ht [3]: 39.9%
Lym [3]: 68.2%
MCH [3]: 21.4 pg
MCHC [3]: 34.6%
MCV [3]: 62 fL
Mono [3]: 2.8%
Neu [3]: 27.4%
PT [3]: 12.1 s
Plat [3]: 125.1 x10_4/uL
RBC [3]: 643.8 x10_4/ul
Ret [3]: 7%
WBC [3]: 83.1 x10_2/uL
KIDNEY_L [3]: 1 g
KIDNEY_R [3]: 0.9 g
KIDNEY_TOTAL [3]: 1.9 g
LIVER [3]: 8 g
A/G [3]: 0.9
ALP [3]: 1612 IU/L
ALT [3]: 41.8 IU/L
AST [3]: 70 IU/L
BUN [3]: 10.8 mg/dL
CRE [3]: 0.2 mg/dL
Ca [3]: 11 mg/dL
Cl [3]: 106.8 meq/L
DBIL [3]: 0.082 mg/dL
GLC [3]: 186.8 mg/dL
IP [3]: 11 mg/dL
K [3]: 4.1 meq/L
LDH [3]: 53.4 IU/L
Na [3]: 142.8 meq/L
PL [3]: 131.2 mg/dL
RALB [3]: 2.6 g/dL
TBIL [3]: 0.054 mg/dL
TC [3]: 67.6 mg/dL
TG [3]: 59 mg/dL
TP [3]: 5.5 g/dL
gamma-GTP [3]: 1.2 IU/L
TERMINAL_BW [4]: 225.5 g
APTT [4]: 14.8 s
Bas [4]: 0%
Eos [4]: 0.6%
Fbg [4]: 269.6 mg/dL
Hb [4]: 13.8 g/dL
Ht [4]: 39.8%
Lym [4]: 83.4%
MCH [4]: 21.8 pg
MCHC [4]: 34.7%
MCV [4]: 62.9 fL
Mono [4]: 2.2%
Neu [4]: 12.8%
PT [4]: 12.3 s
Plat [4]: 115.1 x10_4/uL
RBC [4]: 633.8 x10_4/ul
Ret [4]: 6.7%
WBC [4]: 74 x10_2/uL
KIDNEY_L [4]: 0.9 g
KIDNEY_R [4]: 0.9 g
KIDNEY_TOTAL [4]: 1.8 g
LIVER [4]: 10.4 g
A/G [4]: 0.9
ALP [4]: 1796.8 IU/L
ALT [4]: 43.6 IU/L
AST [4]: 68.2 IU/L
BUN [4]: 15.8 mg/dL
CRE [4]: 0.2 mg/dL
Ca [4]: 11.3 mg/dL
Cl [4]: 105 meq/L
DBIL [4]: 0.072 mg/dL
GLC [4]: 196.8 mg/dL
IP [4]: 7.9 mg/dL
K [4]: 4.1 meq/L
LDH [4]: 56.4 IU/L
Na [4]: 141.6 meq/L
PL [4]: 125.2 mg/dL
RALB [4]: 2.7 g/dL
TBIL [4]: 0.04 mg/dL
TC [4]: 62.6 mg/dL
TG [4]: 69 mg/dL
TP [4]: 5.5 g/dL
gamma-GTP [4]: 1.2 IU/L
TERMINAL_BW [5]: 224.5 g
APTT [5]: 15.3 s
Bas [5]: 0%
Eos [5]: 0.4%
Fbg [5]: 299.8 mg/dL
Hb [5]: 13.9 g/dL
Ht [5]: 40.1%
Lym [5]: 74%
MCH [5]: 22.2 pg
MCHC [5]: 34.6%
MCV [5]: 64.1 fL
Mono [5]: 3.2%
Neu [5]: 20.8%
PT [5]: 12.2 s
Plat [5]: 122 x10_4/uL
RBC [5]: 625.6 x10_4/ul
Ret [5]: 7.4%
WBC [5]: 74.7 x10_2/uL
KIDNEY_L [5]: 0.9 g
KIDNEY_R [5]: 1 g
KIDNEY_TOTAL [5]: 1.9 g
LIVER [5]: 9.5 g
A/G [5]: 0.8
ALP [5]: 1942.2 IU/L
ALT [5]: 47 IU/L
AST [5]: 75.6 IU/L
BUN [5]: 13 mg/dL
CRE [5]: 0.2 mg/dL
Ca [5]: 11.4 mg/dL
Cl [5]: 104.6 meq/L
DBIL [5]: 0.2 mg/dL
GLC [5]: 168 mg/dL
IP [5]: 9.9 mg/dL
K [5]: 4.4 meq/L
LDH [5]: 75.6 IU/L
Na [5]: 141.2 meq/L
PL [5]: 188.8 mg/dL
RALB [5]: 2.7 g/dL
TBIL [5]: 0.082 mg/dL
TC [5]: 83.6 mg/dL
TG [5]: 320 mg/dL
TP [5]: 5.8 g/dL
gamma-GTP [5]: 1.2 IU/L
TERMINAL_BW [6]: 222.4 g
APTT [6]: 14.3 s
Bas [6]: 0%
Eos [6]: 0.6%
Fbg [6]: 305.6 mg/dL
Hb [6]: 13.7 g/dL
Ht [6]: 40%
Lym [6]: 77.4%
MCH [6]: 21 pg
MCHC [6]: 34.2%
MCV [6]: 61.3 fL
Mono [6]: 3.4%
Neu [6]: 17.8%
PT [6]: 11.8 s
Plat [6]: 122.9 x10_4/uL
RBC [6]: 651.8 x10_4/ul
Ret [6]: 6.7%
WBC [6]: 77.1 x10_2/uL
KIDNEY_L [6]: 0.9 g
KIDNEY_R [6]: 0.9 g
KIDNEY_TOTAL [6]: 1.8 g
LIVER [6]: 8.5 g
A/G [6]: 0.9
ALP [6]: 1762.4 IU/L
ALT [6]: 44.2 IU/L
AST [6]: 76.2 IU/L
BUN [6]: 9.8 mg/dL
CRE [6]: 0.2 mg/dL
Ca [6]: 11.4 mg/dL
Cl [6]: 106.4 meq/L
DBIL [6]: 0.1 mg/dL
GLC [6]: 171.2 mg/dL
IP [6]: 10.8 mg/dL
K [6]: 4.3 meq/L
LDH [6]: 61.6 IU/L
Na [6]: 142.6 meq/L
PL [6]: 171.2 mg/dL
RALB [6]: 2.7 g/dL
TBIL [6]: 0.086 mg/dL
TC [6]: 88.2 mg/dL
TG [6]: 121 mg/dL
TP [6]: 5.5 g/dL
gamma-GTP [6]: 1.2 IU/L
TERMINAL_BW [7]: 224.1 g
APTT [7]: 15 s
Bas [7]: 0%
Eos [7]: 0.6%
Fbg [7]: 306.4 mg/dL
Hb [7]: 13.7 g/dL
Ht [7]: 40.2%
Lym [7]: 75.2%
MCH [7]: 21.8 pg
MCHC [7]: 34.1%
MCV [7]: 64.1 fL
Mono [7]: 2.4%
Neu [7]: 21%
PT [7]: 11.9 s
Plat [7]: 117.7 x10_4/uL
RBC [7]: 628 x10_4/ul
Ret [7]: 7.8%
WBC [7]: 52.7 x10_2/uL
KIDNEY_L [7]: 1 g
KIDNEY_R [7]: 0.9 g
KIDNEY_TOTAL [7]: 1.9 g
LIVER [7]: 8.3 g
A/G [7]: 0.9
ALP [7]: 1746.4 IU/L
ALT [7]: 38.8 IU/L
AST [7]: 68 IU/L
BUN [7]: 10.6 mg/dL
CRE [7]: 0.2 mg/dL
Ca [7]: 11.3 mg/dL
Cl [7]: 106.2 meq/L
DBIL [7]: 0.1 mg/dL
GLC [7]: 177.6 mg/dL
IP [7]: 11.8 mg/dL
K [7]: 4.3 meq/L
LDH [7]: 59.4 IU/L
Na [7]: 143.2 meq/L
PL [7]: 143.8 mg/dL
RALB [7]: 2.7 g/dL
TBIL [7]: 0.076 mg/dL
TC [7]: 73.2 mg/dL
TG [7]: 59.6 mg/dL
TP [7]: 5.7 g/dL
gamma-GTP [7]: 1.4 IU/L
TERMINAL_BW [8]: 224.7 g
APTT [8]: 14.7 s
Bas [8]: 0%
Eos [8]: 0.8%
Fbg [8]: 320.4 mg/dL
Hb [8]: 13.6 g/dL
Ht [8]: 39.5%
Lym [8]: 80%
MCH [8]: 21.5 pg
MCHC [8]: 34.4%
MCV [8]: 62.6 fL
Mono [8]: 3.4%
Neu [8]: 15.2%
PT [8]: 12.2 s
Plat [8]: 102.6 x10_4/uL
RBC [8]: 631.8 x10_4/ul
Ret [8]: 6.3%
WBC [8]: 73.6 x10_2/uL
KIDNEY_L [8]: 1 g
KIDNEY_R [8]: 1 g
KIDNEY_TOTAL [8]: 2 g
LIVER [8]: 10.9 g
A/G [8]: 1
ALP [8]: 2167.4 IU/L
ALT [8]: 46.4 IU/L
AST [8]: 74 IU/L
BUN [8]: 12.8 mg/dL
CRE [8]: 0.2 mg/dL
Ca [8]: 11.3 mg/dL
Cl [8]: 105.6 meq/L
DBIL [8]: 0.1 mg/dL
GLC [8]: 189 mg/dL
IP [8]: 8 mg/dL
K [8]: 4 meq/L
LDH [8]: 74.8 IU/L
Na [8]: 141.8 meq/L
PL [8]: 124 mg/dL
RALB [8]: 2.7 g/dL
TBIL [8]: 0.06 mg/dL
TC [8]: 63.6 mg/dL
TG [8]: 67.2 mg/dL
TP [8]: 5.5 g/dL
gamma-GTP [8]: 1.2 IU/L
